Laboratory results: patent US6566361B2, “Azapirone pain treatment” (priority 1999, dated 2003)

What was measured:
[1] = system: albino rats; assay: Preclinical model of chronic pain (rat formalin test, phase II flinches); assay type: in vivo; conditions: single ip delivery: morphine 4 mg/kg, buspirone 3 mg/kg, acetaminophen 300 mg/kg
Experimental: To assess responses to a chronic stimulus (subcutaneous formalin injection), animals are first placed in clear observation boxes for a 30 min acclimation period prior to testing. Animals are subsequently removed and the dorsum of one hindpaw is injected s.c. with 50 microliters of 2.5% formalin. […] The total number of flinches is computer scored during the chronic phase (10-90 min after formalin) using a commercially available device (George Ozaki, Automated Nocicpetion Analyzer, Department of Anesthesiology, University of California, San Diego; La Jolla, Calif.) which automates the manual procedure described previously by Wheeler-Aceto et al. (Pain 40:229-238, 1990). All drugs are delivered at 30 min prior to formalin injection by the intraperitoneal (i.p.) route in a volume of 2 ml/kg. […] For acetaminophen (Sigma, A7085) the vehicle was 40% polyethylene glycol 400 (PEG-400), 10% EtOH, 15% Tween 80, and 35% deionized H2O (PETW). Acetaminophen was disolved sequentially in two parts: 1) first into a solution of 80% PEG 400+20% EtOH, and 2) then slowly added to it was an equal volume of 30% Tween 80+70% deionized H2O (sonicated as needed). Each animal received two injections at time zero. Specifically, animals were tested in one of the following 5 treatment conditions (abbreviations used in figures are shown under ‘Key” below): […]

[2] = system: mouse; assay: Mouse hot plate test (Eddy et al.); assay type: in vivo; conditions: buspirone to acetaminophen weight ratios of 1:3, 1:10, and 1:30
[3] = in vivo; cited from earlier work
[4] = acute high doses; cited from earlier work
[5] = system: rats; assay: Preclinical model of neuropathic pain (Chung spinal nerve L5/L6 ligation, von Frey test); assay type: in vivo, rat; conditions: buspirone 3 mg/kg ip; acetaminophen 200 mg/kg ip; or both coadministered
Source text: J Neurosci Methods. […] For acetaminophen (Sigma, A7085) the vehicle was 40% polyethylene glycol 400 (PEG-400), 10% EtOH, 15% Tween 80, and 35% deionized H2O (PETW). Acetaminophen was disolved sequentially in two parts: 1) first into a solution of 80% PEG 400+20% EtOH, and 2) then slowly added to it was an equal volume of 30% Tween 80+70% deionized H2O (sonicated as needed). Each animal received two injections at time zero.

[6] = in vivo; cited from earlier work; remark: listed apart in the source
[7] = system: albino rats; assay: Rat hindpaw withdrawal (thermal escape) test for analgesia (acute pain); assay type: in vivo; conditions: for Hindpaw thermal escape latency from 30 min to 120 min: ipsapirone 20 mg/kg ip, acetaminophen 300 mg/kg ip, or both coadministered, vs vehicle; for Thermal escape latencies vs vehicle, single administration: tandospirone 5 mg/kg ip alone, acetaminophen 300 mg/kg ip alone
Source text: To assess the thermally evoked paw-withdrawal response, a commercially available device was used. Specifics of device construction and operation have been published previously (Dirig D M, Salami A, Rathbun M L, Ozaki G T, Yaksh T L. Characterization of variables defining hindpaw withdrawal latency evoked by radiant thermal stimuli. J Neurosci Methods. Oct. 3, 1997; 76(2):183-91). This device is comprised of a glass surface on which the rats were placed individually in Plexiglas cubicles (9×22×25 cm). The surface is maintained at 30° C. by a feedback-controlled, under-glass, forced-air heating system. The thermal nociceptive stimulus originates from a projection bulb below the glass that can be manipulated in a two-dimensional axis on ball bearing slides. This apparatus allows the stimulus to be delivered separately to each hind paw with the aid of an angled mirror mounted on the stimulus source. A timer is actuated with the light source, and escape latency is defined as the time between stimulus onset and the display of a brisk paw withdrawal (detected by photodiode motion sensors that stops the timer and terminates the stimulus; cut-off time for a non-response is 20 sec which triggers automatic termination of the stimulus). In the present study, animals are placed in test boxes for 30 min acclimation and then baseline escape latency is assessed separately for each hindpaw (left and right) at −15 min. All drugs are delivered at 0 min by the intraperitoneal (i.p.) route in a volume of 3 ml/kg. […] For acetaminophen (Sigma, A7085) the vehicle was 40% polyethylene glycol 400 (PEG-400), 10% EtOH, 15% Tween 80, and 35% deionized H2O (PETW). Acetaminophen was disolved sequentially in two parts: 1) first into a solution of 80% PEG 400+20% EtOH, and 2) then slowly added to it was an equal volume of 30% Tween 80+70% deionized H2O (sonicated as needed). Other azapirone vehicles were Gepirone (saline), ipsapirone (deionized H2O), and tandospirone (DMA+PETW), DMA=5% dimethylacetamide. Each animal received two injections at time zero. Specifically, animals were tested in one of the following 10 treatment conditions (abbreviations used in figures are shown under ‘Key” below):
Following drug administration, thermal escape latencies are measured at regular intervals (e.g., 15, 30, 60, 90 and 120 min, mean of both paws is used for statistical analysis).

[8] = Rat plasma concentrations of buspirone and APAP over time; assay type: in vivo
Source text: It also has agonistic action at presynaptic D2 dopaminergic receptors. Acetaminophen is believed to act by elevating the pain threshold in patients.

## 8-[4-[4-(2-pyrimidinyl)1-piperazinyl]butyl-8-azaspiro(4,5)-decane-7,9-dione [buspirone]
[1]
  Formalin-induced flinches relative to vehicle: significantly suppressed
[2]
  Potentiation of acetaminophen in hot plate test: demonstrated potentiation of acetaminophen
[3]
  Type of analgesia produced: non-opioid type of analgesia
[4]
  Relief of neuropathic pain: did not relieve neuropathic pain
[5]
  von Frey thresholds, injured side (neuropathic pain responses): not significantly different from vehicle
[6]
  Effect on xylazine-induced antinociception: attenuate xylazine-induced antinociception

## CC(=O)Nc1ccc(O)cc1 [acetaminophen]
[1]
  Formalin-induced flinches relative to vehicle: significantly suppressed
[7]; acetaminophen 300 mg/kg ip, compared to vehicle
  Hindpaw thermal escape response, Area Under the Curve (AUC) from thermal escape latencies (sec) over 120 min post injection: elevated significantly above vehicle
[7]
  Hindpaw thermal escape latency from 30 min to 120 min: a comparably high level of analgesia was not consistently attached throughout this same time period
  Thermal escape latencies vs vehicle, single administration: did not differ from vehicle until 90 min after injection
[8]
  Plasma concentrations over time, alone vs in combination: do not differ significantly whether given alone or in combination
[5]
  von Frey thresholds, injured side (neuropathic pain responses): partial reversal toward normal at 30-120 min

## O=C1c2ccccc2S(=O)(=O)N1CCCCN1CCN(c2ncccn2)CC1 [ipsapirone]
[7]
  Hindpaw thermal escape latency from 30 min to 120 min: a comparably high level of analgesia was not consistently attached throughout this same time period

## CN1CC[C@]23c4c5ccc(O)c4O[C@H]2[C@@H](O)C=C[C@H]3[C@H]1C5 [morphine]
[1]
  Formalin-induced flinches relative to vehicle: significantly suppressed

## O=C1[C@@H]2[C@H]3CC[C@H](C3)[C@@H]2C(=O)N1CCCCN1CCN(c2ncccn2)CC1 [tandospirone]
[7]
  Thermal escape latencies vs vehicle, single administration: did not differ from vehicle until 90 min after injection
